Laboratory results taken from the Kinase Knowledgebase extract (Sharma et al. 2016).

The compounds below were run against CDK2 (human) (UniProt P24941) (assay: Enzyme Assay).

Row | SMILES | IC50
1 | OCCOc1ccc(F)c(Cc2c[nH]c3ncc(-c4cccnc4)cc23)c1F | ≤ 10 µM
2 | CCCC(=O)Nc1ccc(F)c(Cc2c[nH]c3ncc(-c4cccnc4)cc23)c1F | ≤ 10 µM
3 | CCCS(=O)(=O)Nc1ccc(F)c(C(=O)c2c[nH]c3ncc(OC)cc23)c1F | ≤ 10 µM
4 | CCCS(=O)(=O)Nc1ccc(F)c(C(OC)c2c[nH]c3ncc(OC)cc23)c1F (stereo not given) | ≤ 10 µM

These compounds were tested against EGFR (human) (UniProt P00533) (assay: not given).
Sequence of EGFR (human) (P00533 whole entry, looked up): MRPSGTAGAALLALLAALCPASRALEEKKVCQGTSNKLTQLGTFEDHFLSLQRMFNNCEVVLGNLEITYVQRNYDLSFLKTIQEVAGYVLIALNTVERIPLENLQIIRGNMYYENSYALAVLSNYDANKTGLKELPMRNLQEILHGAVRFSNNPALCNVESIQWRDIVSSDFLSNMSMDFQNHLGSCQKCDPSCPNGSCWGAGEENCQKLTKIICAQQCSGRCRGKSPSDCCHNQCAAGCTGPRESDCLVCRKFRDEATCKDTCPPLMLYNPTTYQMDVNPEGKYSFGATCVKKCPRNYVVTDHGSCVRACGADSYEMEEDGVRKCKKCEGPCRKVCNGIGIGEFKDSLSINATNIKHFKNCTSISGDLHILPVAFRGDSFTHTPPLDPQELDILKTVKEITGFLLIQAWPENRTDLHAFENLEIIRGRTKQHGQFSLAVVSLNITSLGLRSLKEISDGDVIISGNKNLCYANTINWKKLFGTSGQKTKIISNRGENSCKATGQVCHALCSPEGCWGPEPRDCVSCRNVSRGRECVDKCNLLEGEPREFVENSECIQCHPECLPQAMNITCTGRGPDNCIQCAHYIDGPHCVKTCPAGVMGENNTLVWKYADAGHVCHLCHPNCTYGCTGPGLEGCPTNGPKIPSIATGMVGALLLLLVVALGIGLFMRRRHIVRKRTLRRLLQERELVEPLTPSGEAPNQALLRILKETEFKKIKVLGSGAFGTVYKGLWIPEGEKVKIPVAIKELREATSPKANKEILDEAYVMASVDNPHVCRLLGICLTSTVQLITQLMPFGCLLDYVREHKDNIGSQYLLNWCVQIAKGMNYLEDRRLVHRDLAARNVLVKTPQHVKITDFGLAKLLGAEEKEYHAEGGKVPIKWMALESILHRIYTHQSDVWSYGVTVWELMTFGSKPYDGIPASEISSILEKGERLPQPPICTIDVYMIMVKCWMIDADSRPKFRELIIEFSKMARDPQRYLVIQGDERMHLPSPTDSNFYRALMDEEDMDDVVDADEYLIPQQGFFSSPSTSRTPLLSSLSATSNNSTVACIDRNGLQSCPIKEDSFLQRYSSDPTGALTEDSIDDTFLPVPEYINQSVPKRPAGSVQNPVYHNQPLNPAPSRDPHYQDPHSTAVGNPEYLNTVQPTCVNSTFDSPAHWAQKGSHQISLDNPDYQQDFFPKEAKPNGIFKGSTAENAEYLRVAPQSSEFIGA

Row | SMILES | IC50
5 | Nc1cccc(-c2cnc3[nH]cc(C(=O)c4cc(O)ccc4F)c3c2)c1 | ≤ 10 µM
6 | Nc1cccc(-c2cnc3[nH]cc(C(=O)c4cccc(O)c4F)c3c2)c1 | ≤ 10 µM
7 | CC(=O)Nc1cccc(-c2cnc3[nH]cc(C(=O)c4cc(O)ccc4F)c3c2)c1 | ≤ 10 µM
8 | O=C(c1cccc(O)c1)c1c[nH]c2ncc(Nc3ccccc3)cc12 | ≤ 10 µM
9 | Nc1cccc(-c2cnc3[nH]cc(C(=O)c4cccc(O)c4)c3c2)c1 | ≤ 10 µM

These compounds were tested against MAPK14 (human) (UniProt Q16539) (assay: Inhibition of MAPK14 Kinase Activity).
Sequence of MAPK14 (human) (Q16539 whole entry, looked up): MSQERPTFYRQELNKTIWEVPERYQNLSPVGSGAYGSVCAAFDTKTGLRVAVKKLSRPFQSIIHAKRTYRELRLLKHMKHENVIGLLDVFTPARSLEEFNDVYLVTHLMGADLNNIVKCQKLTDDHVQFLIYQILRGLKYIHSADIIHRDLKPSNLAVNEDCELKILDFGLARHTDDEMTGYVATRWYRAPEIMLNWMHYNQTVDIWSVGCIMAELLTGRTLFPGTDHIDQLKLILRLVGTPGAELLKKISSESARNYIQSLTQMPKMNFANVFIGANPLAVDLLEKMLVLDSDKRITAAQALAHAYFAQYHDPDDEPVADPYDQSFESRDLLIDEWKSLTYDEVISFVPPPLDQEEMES

Row | SMILES | IC50
10 | Nc1cccc(-c2cnc3[nH]cc(C(=O)c4cc(O)ccc4F)c3c2)c1 | ≤ 10 µM
11 | Nc1cccc(-c2cnc3[nH]cc(C(=O)c4cccc(O)c4F)c3c2)c1 | ≤ 10 µM
12 | CC(=O)Nc1cccc(-c2cnc3[nH]cc(C(=O)c4cc(O)ccc4F)c3c2)c1 | ≤ 10 µM
13 | O=C(c1cccc(O)c1)c1c[nH]c2ncc(Nc3ccccc3)cc12 | ≤ 10 µM
14 | CCCS(=O)(=O)Nc1ccc(F)c(C(=O)c2c[nH]c3ncc(OC)cc23)c1F | ≤ 10 µM
15 | Nc1cccc(-c2cnc3[nH]cc(C(=O)c4cccc(O)c4)c3c2)c1 | ≤ 10 µM
